From paper PMC12057046, “Elucidation of short linear motif-based interactions of the MIT and rhodanese domains of the ubiquitin-specific protease 8” (Biology Direct, 2025)

Target: T1, USP8 Rhod domain (Homo sapiens, UniProt P40818)
T1 construct: USP8 Rhod (174–317) (UniProt: P40818); GST (cleaved yes); made in house; host or cells: Escherichia coli BL21-Gold (DE3)
T1 sequence (P40818 174-317): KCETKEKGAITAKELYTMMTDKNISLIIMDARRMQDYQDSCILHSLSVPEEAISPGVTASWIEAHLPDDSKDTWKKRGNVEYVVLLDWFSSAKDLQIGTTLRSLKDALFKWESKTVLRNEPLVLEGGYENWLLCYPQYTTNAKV
Assay: Peptide-phage display-based deep mutational scanning (DMS), USP8 Rhod domain
Format: binding
Settings: bait USP8_Rhodanese__P40818_174_317
Method: Four rounds of phage selections were carried out using the second generation human disorderome library or the constructed deep mutational scanning library. At least three individual replicates were used for each bait protein. 10 µg of GST-tagged proteins or GST control (diluted in PBS from the stock of proteins kept in the purification elution buffer) were immobilized in 100 µL PBS on a 96-well MaxiSorp (Nunc) plate overnight at 4 °C. The plates were incubated with blocking buffer (with 0.5% BSA in PBS) for 1 h at 4 °C followed by washing with 0.05% Tween 20 in PBS four times. The naïve phage library (10^11 CFU) was diluted in 1/5th volume PEG/NaCl (20% PEG-8000, 0.4 M NaCl) and 1X PBS, incubated on ice for 10 min and centrifuged at 10,000 [drawing 3] g for 10 min. The pellet was resuspended in the volume of PBS (100 µL/ well). The GST-coated control plate was incubated with 100 µL library per well in PBS for 1 h at 4 °C to remove non-specific binders. The supernatant was transferred to the target wells and incubated for 2 h at 4 °C. The wells were washed five times with 0.05% Tween 20 in PBS and the bound phages were eluted with 100 µL per well log-phase E. coli OmniMAX by incubating at 37° C while shaking. After 30 min, M13KO7 helper phages were added and incubated for an additional 45 min. The bacterial cultures were transferred to 1 mL 2YT supplemented with 100 µg/mL carbenicillin, 30 µg/mL kanamycin and 0.3 mM IPTG and grew overnight at 37 °C while shaking. The following day the cultures were centrifuged for 10 min at 2,000 [drawing 4] g, 4 °C. 1/10th volume of 10 [drawing 5] PBS was added to adjust the pH and heated at 65 °C for 10 min. The phage pools from each round were used as in-phages for the next round of selections.
The samples were prepared for NGS as previously described. […] The PCR products were normalized with 25 µL Mag-bind Total Pure NGS beads (Omega Biotek) and 10 µL of each eluted sample (Qiagen Elution Buffer) was pooled and cleaned-up with a PCR purification kit (Qiagen). The PCR product was confirmed by 2% agarose electrophoresis and the band was extracted with QIAquick Gel extraction Kit (Qiagen) and eluted with 30 µL TE buffer. The dsDNA was quantified using QuantiT PicoGreen dsDNA Assay Kit (Thermo Fisher) and sent for NGS (Illumina MiSeq v3, 1 × 150 bp read setup, 20% PhiX, NGI SciLifeLab facility, Sweden). The NGS data were demultiplexed, adapter regions were trimmed and sequences with an average quality of at least 20 were translated to peptide sequences. The NGS data were analysed using custom Python scripts. The total read NGS counts for each selection experiment of each peptide sequence were compiled and annotated in PepTools (https://slim.icr.ac.uk/tools/peptools/). Since ProP-PD is in essence a competition assay, the possibility of the input phage library influencing the selection outcome was explored. […] Pearson correlation coefficient and p-value were calculated using Python’s SciPy library.

[1] = wild-type/mutant pair ratio of averaged fractions, negative values where mutant fraction is higher
[2] = ProP-PD pairs, wild-type/mutant pair, wild type KIAA1614 569-584 GMERVLGGLSSPLRLL (wt_00013)
[3] = wild type/mutant pair, vs hit_library_peptide_wt GLALWEAKMKQLAERA, negative where mutant fraction exceeds wild type, ProP-PD pairs (sheet S7.B)

| hit_pair_ratio [1] | Sequence | further results |
| --- | --- | --- |
| -9.71 | AMERVLGGLSSPLRLL | – |
| – | DMERVLGGLSSPLRLL | hit_pair_ratio [2]: 1.56 |
| – | ELALWEAKMKQLAERA | hit_pair_ratio [3]: 75.56 |
| – | EMERVLGGLSSPLRLL | hit_pair_ratio [2]: 2.87 |
| – | FMERVLGGLSSPLRLL | hit_pair_ratio [2]: 321.97 |
| – | GAALWEAKMKQLAERA | hit_pair_ratio [3]: 1107.01 |
| – | GAERVLGGLSSPLRLL | hit_pair_ratio [2]: -2.65 |
| – | GDERVLGGLSSPLRLL | hit_pair_ratio [2]: -4.95 |
| – | GEERVLGGLSSPLRLL | hit_pair_ratio [2]: -32.83 |
| – | GFALWEAKMKQLAERA | hit_pair_ratio [3]: 114.71 |
| – | GFERVLGGLSSPLRLL | hit_pair_ratio [2]: 1.56 |
| – | GGERVLGGLSSPLRLL | hit_pair_ratio [2]: -22.40 |
| – | GHALWEAKMKQLAERA | hit_pair_ratio [3]: 175.67 |
| – | GHERVLGGLSSPLRLL | hit_pair_ratio [2]: -7.73 |
| – | GIALWEAKMKQLAERA | hit_pair_ratio [3]: 1.27 |
| – | GIERVLGGLSSPLRLL | hit_pair_ratio [2]: -4.51 |
| – | GKALWEAKMKQLAERA | hit_pair_ratio [3]: 369.00 |
| – | GKERVLGGLSSPLRLL | hit_pair_ratio [2]: -1.45 |
| – | GLAAWEAKMKQLAERA | hit_pair_ratio [3]: 52.20 |
| – | GLADWEAKMKQLAERA | hit_pair_ratio [3]: 1107.01 |
| – | GLAEWEAKMKQLAERA | hit_pair_ratio [3]: 52.71 |
| – | GLAFWEAKMKQLAERA | hit_pair_ratio [3]: 21.29 |

| hit_pair_ratio [1] | Sequence | further results |
| --- | --- | --- |
| – | GLAGWEAKMKQLAERA | hit_pair_ratio [3]: 208.81 |
| – | GLAHWEAKMKQLAERA | hit_pair_ratio [3]: 369.00 |
| – | GLAIWEAKMKQLAERA | hit_pair_ratio [3]: -44.11 |
| – | GLAKWEAKMKQLAERA | hit_pair_ratio [3]: 1107.01 |
| – | GLALFEAKMKQLAERA | hit_pair_ratio [3]: 1107.01 |
| – | GLALGEAKMKQLAERA | hit_pair_ratio [3]: 65.12 |
| – | GLALHEAKMKQLAERA | hit_pair_ratio [3]: 1107.01 |
| – | GLALKEAKMKQLAERA | hit_pair_ratio [3]: 553.50 |
| – | GLALLEAKMKQLAERA | hit_pair_ratio [3]: 417.62 |
| – | GLALMEAKMKQLAERA | hit_pair_ratio [3]: 16.52 |
| – | GLALPEAKMKQLAERA | hit_pair_ratio [3]: 110.70 |
| – | GLALREAKMKQLAERA | hit_pair_ratio [3]: 303.23 |
| – | GLALSEAKMKQLAERA | hit_pair_ratio [3]: 61.66 |
| – | GLALTEAKMKQLAERA | hit_pair_ratio [3]: 1107.01 |
| – | GLALVEAKMKQLAERA | hit_pair_ratio [3]: 1107.01 |
| – | GLALWAAKMKQLAERA | hit_pair_ratio [3]: 553.50 |
| – | GLALWDAKMKQLAERA | hit_pair_ratio [3]: 51.13 |
| – | GLALWEAEMKQLAERA | hit_pair_ratio [3]: 1107.01 |
| – | GLALWEAKAKQLAERA | hit_pair_ratio [3]: 7.49 |
| – | GLALWEAKFKQLAERA | hit_pair_ratio [3]: 369.00 |
| – | GLALWEAKHKQLAERA | hit_pair_ratio [3]: 127.97 |
| – | GLALWEAKIKQLAERA | hit_pair_ratio [3]: 101.08 |

| hit_pair_ratio [1] | Sequence | further results |
| --- | --- | --- |
| – | GLALWEAKLKQLAERA | hit_pair_ratio [3]: 1107.01 |
| -3.11 | GLALWEAKMAQLAERA | – |
| 25.01 | GLALWEAKMDQLAERA | – |
| -4.35 | GLALWEAKMEQLAERA | – |
| 59.51 | GLALWEAKMFQLAERA | – |
| -1.24 | GLALWEAKMGQLAERA | – |
| -2.45 | GLALWEAKMHQLAERA | – |
| 19.96 | GLALWEAKMIQLAERA | – |
| 133.35 | GLALWEAKMKALAERA | – |
| -1.51 | GLALWEAKMKDLAERA | – |
| 1107.01 | GLALWEAKMKFLAERA | – |
| 5.73 | GLALWEAKMKGLAERA | – |
| 17.96 | GLALWEAKMKHLAERA | – |
| 553.50 | GLALWEAKMKILAERA | – |
| 417.62 | GLALWEAKMKKLAERA | – |
| -2.26 | GLALWEAKMKLLAERA | – |
| 23.91 | GLALWEAKMKMLAERA | – |
| 1.69 | GLALWEAKMKNLAERA | – |
| 417.62 | GLALWEAKMKQAAERA | – |
| 553.50 | GLALWEAKMKQFAERA | – |
| 1107.01 | GLALWEAKMKQIAERA | – |
| 1107.01 | GLALWEAKMKQKAERA | – |

| hit_pair_ratio [1] | Sequence | further results |
| --- | --- | --- |
| 114.71 | GLALWEAKMKQLAARA | – |
| 175.67 | GLALWEAKMKQLADRA | – |
| 1107.01 | GLALWEAKMKQLAEAA | – |
| 66.48 | GLALWEAKMKQLAEDA | – |
| 15.47 | GLALWEAKMKQLAEEA | – |
| 208.81 | GLALWEAKMKQLAEFA | – |
| 5.87 | GLALWEAKMKQLAEGA | – |
| 25.68 | GLALWEAKMKQLAEHA | – |
| 12.41 | GLALWEAKMKQLAEKA | – |
| 11.23 | GLALWEAKMKQLAELA | – |
| 12.23 | GLALWEAKMKQLAEMA | – |
| 55.62 | GLALWEAKMKQLAENA | – |
| -18.07 | GLALWEAKMKQLAEPA | – |
| -4.51 | GLALWEAKMKQLAEQA | – |
| -5.62 | GLALWEAKMKQLAERD | – |
| 4.16 | GLALWEAKMKQLAERE | – |
| 1107.01 | GLALWEAKMKQLAERF | – |
| 73.80 | GLALWEAKMKQLAERG | – |
| 208.81 | GLALWEAKMKQLAERH | – |
| -1.09 | GLALWEAKMKQLAERI | – |
| 72.57 | GLALWEAKMKQLAERL | – |
| 33.55 | GLALWEAKMKQLAERM | – |

| hit_pair_ratio [1] | Sequence | further results |
| --- | --- | --- |
| -1.05 | GLALWEAKMKQLAERN | – |
| -3.73 | GLALWEAKMKQLAERP | – |
| 3.47 | GLALWEAKMKQLAERQ | – |
| 553.50 | GLALWEAKMKQLAERR | – |
| 1.62 | GLALWEAKMKQLAERS | – |
| 1.21 | GLALWEAKMKQLAERT | – |
| -1.88 | GLALWEAKMKQLAERV | – |
| 303.23 | GLALWEAKMKQLAERY | – |
| -3.11 | GLALWEAKMKQLAESA | – |
| -1.95 | GLALWEAKMKQLAETA | – |
| 195.90 | GLALWEAKMKQLAEVA | – |
| 38.36 | GLALWEAKMKQLAEWA | – |
| -10.12 | GLALWEAKMKQLAEYA | – |
| 24.07 | GLALWEAKMKQLAFRA | – |
| 14.06 | GLALWEAKMKQLAGRA | – |
| 1107.01 | GLALWEAKMKQLAIRA | – |
| 13.05 | GLALWEAKMKQLALRA | – |
| 7.80 | GLALWEAKMKQLAMRA | – |
| 73.80 | GLALWEAKMKQLANRA | – |
| 119.01 | GLALWEAKMKQLAQRA | – |
| 65.49 | GLALWEAKMKQLASRA | – |
| 553.50 | GLALWEAKMKQLATRA | – |

| hit_pair_ratio [1] | Sequence | further results |
| --- | --- | --- |
| 20.13 | GLALWEAKMKQLAVRA | – |
| 1107.01 | GLALWEAKMKQLAWRA | – |
| 208.81 | GLALWEAKMKQLAYRA | – |
| 184.50 | GLALWEAKMKQLDERA | – |
| -19.29 | GLALWEAKMKQLEERA | – |
| -3.00 | GLALWEAKMKQLGERA | – |
| 1.77 | GLALWEAKMKQLHERA | – |
| 369.00 | GLALWEAKMKQLIERA | – |
| 184.50 | GLALWEAKMKQLKERA | – |
| 31.22 | GLALWEAKMKQLLERA | – |
| 81.38 | GLALWEAKMKQLMERA | – |
| 17.57 | GLALWEAKMKQLNERA | – |
| 87.51 | GLALWEAKMKQLPERA | – |
| 2.19 | GLALWEAKMKQLQERA | – |
| 133.35 | GLALWEAKMKQLTERA | – |
| -3.40 | GLALWEAKMKQLVERA | – |
| 195.90 | GLALWEAKMKQLYERA | – |
| 1107.01 | GLALWEAKMKQMAERA | – |
| 417.62 | GLALWEAKMKQRAERA | – |
| 1107.01 | GLALWEAKMKQSAERA | – |
| 29.55 | GLALWEAKMKRLAERA | – |
